From patent US12084407B2, “Cannabigerol derivatives and use thereof as cannabinoid receptor modulators” (CANOPY GROWTH CORPORATION, priority 2019, dated 2024)
Read-outs that look alike come from different tables or passages of the source.

Experiments:
human CB1 receptor = target: T1, human CB1 receptor (Homo sapiens, UniProt P21554); assay: CB1 radioligand competitive binding assay ([3H]CP 55,940 displacement)
T1 construct: host or cells: CHO-K1

human CB2 receptor = target: T2, human CB2 receptor (Homo sapiens, UniProt P34972); assay: CB2 radioligand competitive binding assay ([3H]CP 55,940 displacement); details: for Selectivity CB2: fold difference in selectivity between CB1 and CB2 binding, in the column of the receptor with the higher binding affinity
T2 construct: host or cells: CHO-K1
T2 sequence (P34972 whole entry): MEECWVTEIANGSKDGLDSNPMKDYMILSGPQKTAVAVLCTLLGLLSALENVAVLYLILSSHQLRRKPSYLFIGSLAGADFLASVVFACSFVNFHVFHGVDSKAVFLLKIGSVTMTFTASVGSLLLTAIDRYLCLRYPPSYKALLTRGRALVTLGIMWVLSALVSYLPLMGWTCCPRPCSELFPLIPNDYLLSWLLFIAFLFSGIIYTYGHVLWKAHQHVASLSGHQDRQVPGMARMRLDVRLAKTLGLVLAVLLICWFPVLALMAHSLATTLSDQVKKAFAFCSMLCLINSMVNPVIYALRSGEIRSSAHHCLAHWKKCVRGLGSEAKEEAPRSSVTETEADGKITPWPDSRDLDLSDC
Experimental: Compounds of the present disclosure were tested for CB1 receptor binding affinity and for CB2 receptor binding affinity. As used herein, “binding affinity” is represented by the IC50 value, which was experimentally determined as described herein. The lower the IC50 value the higher the binding affinity. A compound of the present disclosure may be said to have “binding selectivity” if it has a higher binding affinity for one receptor compared to the other.
The membranes were prepared from CHO-K1 (Chinese hamster ovary) cells stably transfected with the human CB2 receptor (Cat. #ES-111-C; Perkin Elmer, Boston, MA). The cells were grown adherently and maintained in Ham's F12 medium containing 10% fetal bovine serum (FBS), penicillin, streptomycin and geneticin (G418) at 37° C. in a humid atmosphere of 5% CO2 following the manufacturer's instructions.
For membrane preparation the cells were washed with PBS and scraped off the plates in cold homogenization buffer (25 mM HEPES (pH 7.4), 2 mM EDTA) containing protease inhibitor cocktail (Sigma Cat. #P8340). The cell suspension was homogenized with a Pro-PK-01200D Polytron Homogenizer (Pro Scientific) and then centrifuged for 30 min at 120,000×g. The supernatant was discarded and the pellet was re-suspended in the homogenization buffer and stored at −80° C. until the time of use.
In this experiment, 3H radiolabeled CP 55,940, i.e. [3H]CP 55,940 (Perkin Elmer, Boston, MA), was used as a radioligand for the CB2 receptor to determine the binding affinity of compounds for the CB2 receptor (Scheme 7; above).
The competition binding experiments (single dose and dose-response) were performed by incubating 0.6 nM of [3H]CP55,940 (specific activity 101 Ci/mmol, Perkin Elmer) and different concentrations of compounds disclosed herein with membranes prepared as above from CHO-K1 cells expressing human CB2 receptor (1 μg of protein/well), 50 mM Tris-HCl (pH 7.4), 5 mM MgCl2, 1 mM CaCl2, and 2 mg/mL BSA.
For the single dose experiments, the compound stocks (usually 10 mM in DMSO) were diluted to working stocks in the binding buffer to give the final compound concentrations of 10 μM and 1 μM. For the dose-response experiments the test compounds were sequentially diluted to provide the desired concentration range for the IC50 determination. In each case the compounds were pre-incubated with the membrane for 20 min, before adding the radioligand.
After incubation with the radioligand for 60 min at 37° C., the incubation was terminated by rapid filtration of assay mixture through MultiScreen®HTS^+ 96-well filter plates (Millipore, Cat. #MSFCNXB), pre-soaked for 60 min with 50 mM Tris-HCl (pH 7.4) containing 0.33% polyethylenimine (PEI). The nonspecific binding (NSB) was determined in the presence of 10 μM unlabelled CP55,940. After drying the filter plate at 50° C. for at least 60 min, the filter-bound radioactivity was determined by scintillation spectrometry using the 1450 MicroBeta Plate Counter (Perkin Elmer, Boston, MA). From the dose-response experiments, the IC50 values were determined (see Table 1, CB2 IC50).
Where the test compound had about the same affinity for both receptors, this is represented by a value of 1.00 in the column for both receptors.

[1] = 0.8 nM [3H]CP 55,940, membranes from CHO-K1 cells expressing human CB1 receptor, dose-response, read-out: CB1 IC50
[2] = 0.6 nM [3H]CP55,940, membranes from CHO-K1 cells expressing human CB2 receptor, dose-response, read-out: CB2 IC50

T1 sequence (P21554 whole entry): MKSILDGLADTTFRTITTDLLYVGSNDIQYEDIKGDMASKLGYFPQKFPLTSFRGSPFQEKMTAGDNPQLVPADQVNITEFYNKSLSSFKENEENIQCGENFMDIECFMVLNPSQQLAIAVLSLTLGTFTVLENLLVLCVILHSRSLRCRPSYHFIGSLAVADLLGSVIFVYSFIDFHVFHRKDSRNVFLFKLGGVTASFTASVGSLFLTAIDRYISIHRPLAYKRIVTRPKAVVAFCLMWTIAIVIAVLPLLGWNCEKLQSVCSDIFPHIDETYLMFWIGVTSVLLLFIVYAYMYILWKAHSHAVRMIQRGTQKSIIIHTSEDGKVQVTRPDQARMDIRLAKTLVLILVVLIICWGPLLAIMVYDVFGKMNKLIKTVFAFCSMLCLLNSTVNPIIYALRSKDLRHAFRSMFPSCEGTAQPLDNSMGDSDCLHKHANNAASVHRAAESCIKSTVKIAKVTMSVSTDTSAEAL

| SMILES | IC50 (human CB1 receptor; [1]) [nM] | IC50 (human CB2 receptor; [2]) [nM] | Selectivity CB2 (human CB2 receptor) [fold] | IC50 (human CB1 receptor) [nM] | IC50 (human CB2 receptor) [nM] |
| --- | --- | --- | --- | --- | --- |
| CCCCCc1cc(O)c(C/C=C(\C)CCC=C(C)C)c(O)c1S(C)(=O)=O [Compound 3, 2-(3,7-dimethylocta-2,6-dien-1-yl)-4-(methylsulfonyl)-5-pentylbenzene-1,3-diol] | > 1000 | 500 to 990 | 1.47 | – | – |
| CCCCCc1cc(O)c(C/C=C(\C)CCC=C(C)C)c(O)c1S(=O)(=O)NC [Compound 20, 3-(3,7-dimethylocta-2,6-dien-1-yl)-2,4-dihydroxy-N-methyl-6-pentylbenzenesulfonamide] | – | – | 3.93 | > 1000 | 100 to 490 |
| CCCCCc1cc(O)c(C/C=C(\C)CCC=C(C)C)c(O)c1S(=O)(=O)NC(C)C [Compound 23, 3-(3,7-dimethylocta-2,6-dien-1-yl)-2,4-dihydroxy-N-isopropyl-6-pentylbenzenesulfonamide] | > 1000 | 100 to 490 | 18.43 | – | – |
| CCCCCc1cc(O)c(C/C=C(\C)CCC=C(C)C)c(O)c1S(=O)(=O)Nc1ccccc1 [Compound 24, 3-(3,7-dimethylocta-2,6-dien-1-yl)-2,4-dihydroxy-6-pentyl-N-phenylbenzenesulfonamide] | 100 to 490 | < 100 | 61.50 | – | – |
| CCCCCc1cc(O)c(C/C=C(\C)CCC=C(C)C)c(O)c1S(=O)(=O)N1CCOCC1 [Compound 28, 2-(3,7-dimethylocta-2,6-dien-1-yl)-4-(morpholinosulfonyl)-5-pentylbenzene-1,3-diol] | 500 to 990 | < 100 | 266.67 | – | – |
| CCCCCc1cc(O)c(C/C=C(\C)CCC=C(C)C)c(O)c1C(=O)NS(=O)(=O)c1ccccc1 [Compound 58, 3-(3,7-dimethylocta-2,6-dien-1-yl)-2,4-dihydroxy-6-pentyl-N-(phenylsulfonyl)benzamide] | > 1000 | > 1000 | 1.88 | – | – |
| CCCCCc1cc(O)c(C/C=C(\C)CCC=C(C)C)c(O)c1S(=O)(=O)NC1CCCCC1 [Compound 62, N-cyclohexyl-3-(3,7-dimethylocta-2,6-dien-1-yl)-2,4-dihydroxy-6-pentylbenzenesulfonamide] | > 1000 | 100 to 490 | 9.04 | – | – |
| CCCCCc1cc(O)c(C/C=C(\C)CCC=C(C)C)c(O)c1S(=O)(=O)NC1CCC1 [Compound 63, N-cyclobutyl-3-(3,7-dimethylocta-2,6-dien-1-yl)-2,4-dihydroxy-6-pentylbenzenesulfonamide] | > 1000 | < 100 | 24.80 | – | – |
| CCCCCCNS(=O)(=O)c1c(CCCCC)cc(O)c(C/C=C(\C)CCC=C(C)C)c1O [Compound 64, 3-(3,7-dimethylocta-2,6-dien-1-yl)-N-hexyl-2,4-dihydroxy-6-pentylbenzenesulfonamide] | > 1000 | 100 to 490 | 7.89 | – | – |
| C=CCNS(=O)(=O)c1c(CCCCC)cc(O)c(C/C=C(\C)CCC=C(C)C)c1O [Compound 65, N-allyl-3-(3,7-dimethylocta-2,6-dien-1-yl)-2,4-dihydroxy-6-pentylbenzenesulfonamide] | > 1000 | < 100 | 25.50 | – | – |
| CCCCCc1cc(O)c(C/C=C(\C)CCC=C(C)C)c(O)c1C(=O)NS(=O)(=O)c1cccnc1 [Compound 66, 3-(3,7-dimethylocta-2,6-dien-1-yl)-2,4-dihydroxy-6-pentyl-N-(pyridin-3-ylsulfonyl)benzamide] | > 1000 | > 1000 | 1.88 | – | – |
| CCCCCc1cc(O)c(C/C=C(\C)CCC=C(C)C)c(O)c1S(=O)(=O)Oc1ccccc1 [Compound 67, phenyl-3-(3,7-dimethylocta-2,6-dien-1-yl)-2,4-dihydroxy-6-pentylbenzenesulfonate] | > 1000 | 100 to 490 | 20.83 | – | – |
